{"source": "patent US9643032B2", "about": "“Application of dehydroascorbic acid or derivatives/isomers thereof for artificially coloring the skin” (L'Oreal, priority 2007, dated 2017)", "test_system": "Episkin model of reconstructed skin", "assay": "Skin coloring on the Episkin model of reconstructed skin, spectrocolorimeter measurement after washing", "type": "cell-based", "description": "The products are evaluated on the Episkin model of reconstructed skin after 18 days of culturing. The crucibles are placed on Whatman paper. 20 μl of a 5 wt % solution of test product in a 50% water/50% ethanol mixture. […] A second rinse is performed with 1 ml of water. The residual liquid is absorbed using a soft paper tissue. The measurements are taken using a Minolta CM-2600d spectrocolorimeter.\nSpectrocolorimeter Minolta CM2600d\nThe results are expressed in the system (L*, a*, b*) dans lequel L* is the luminance, a* is the red-green axis (−a*=green, +a*=red) and b* is the yellow/blue axis (−b*=blue, +b*=yellow). Therefore, a* and b* express the coloring of the skin.\nThe color deviation is obtained with the color deviation formula of Hunter in the calorimetric domain L, a, b: (ΔE)^2=[(ΔL)^2+(Δa)^2+(Δb)^2]. ΔE is the darkening, the global intensity of the color: The more ΔE is important the more the color darkened.", "key": {"[1]": {"conditions": "5 wt % solution in 50% water/50% ethanol, 20 μl, after 24 hours, after washing"}}}
{"smiles": "O=C1OC(C(O)CO)C(=O)C1=O", "note": "(stereo not drawn) [Dehydroascorbic acid, threo-2,3-hexodiulosono-1,4-lactone, 9CI]", "values": [{"measurement": "L* (luminance / intensity)", "setting": "[1]", "result": 77.7}, {"measurement": "a* (red component)", "setting": "[1]", "result": 4.8}, {"measurement": "b* (yellow component)", "setting": "[1]", "result": 35}, {"measurement": "ΔE*ab (color deviation, darkening)", "setting": "5 wt % solution, after 24 hours, after washing, deviation versus Episkin alone", "result": 14.6}, {"measurement": "Shade obtained compared with DHA", "setting": "concentration equal to 5 wt %", "result": "stronger shade with a more pronounced dominant red"}]}
